In patent publication US8546608B2, “Proteasome inhibitors and methods of using the same” (Cephalon, Inc., priority 2003, dated 2013):
pEC50, pIC50: −log10 of the molar value. Counter-ions that a name gives are not always drawn. Like-named read-outs stand apart in the source and are kept apart here.

Key:
[1] = target: T1, proteasome in Molt-4 cells (human leukemia) (Homo sapiens, UniProt P20618+P28074); type: cell-based
T1 sequence (P28074 60-263): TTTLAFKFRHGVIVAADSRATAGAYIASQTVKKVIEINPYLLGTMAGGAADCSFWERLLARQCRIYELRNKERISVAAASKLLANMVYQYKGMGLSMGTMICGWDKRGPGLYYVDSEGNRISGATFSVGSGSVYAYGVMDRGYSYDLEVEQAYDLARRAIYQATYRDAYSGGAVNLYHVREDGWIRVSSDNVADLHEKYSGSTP
T1 sequence (P20618 29-241): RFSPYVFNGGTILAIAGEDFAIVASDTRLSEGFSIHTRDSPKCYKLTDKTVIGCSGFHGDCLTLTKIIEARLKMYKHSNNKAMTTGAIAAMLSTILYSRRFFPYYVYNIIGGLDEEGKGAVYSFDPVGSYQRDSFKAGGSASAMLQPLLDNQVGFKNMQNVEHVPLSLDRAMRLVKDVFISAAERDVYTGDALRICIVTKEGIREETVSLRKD
Method in brief: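 Intact Molt-4 cells (6×10^6 cells/mL) in HEPES-buffered saline were preincubated with inhibitor 15 min at 37 °C, then given cell-permeable MeOSuc-FLF-AFC at 25 μM final.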

[2] = target: T2, 20S Human Erythrocyte Proteasome (HEP) (Homo sapiens, UniProt P20618+P28074); test: Chymotrypsin-like activity of 20S Human Erythrocyte Proteasome (HEP), IC50 determination; type: biochemical; details: assay of Example C, inhibition of HEP
T2 construct: 20S Human Erythrocyte Proteasome (HEP), purchased from Immatics Biotechnologies Inc; purchased Immatics Biotechnologies Inc., Tübingen, Germany; host or cells: human erythrocytes (natural source)
Method in brief: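 20S proteasome at 0.2 μg/mL (about 0.6 nM catalytic sites) in 20 mM Tris with 0.04% SDS, preincubated 15 min at 37° C with inhibitor before Suc-LLVY-AMC (100 μM final). AMC fluorescence read in the linear range; triplicates, IC50 from concentration series.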

[3] = assay of Example E, inhibition of MOLT4; read-out: MOLT4 (EC50)

Row | Structure (SMILES) | pIC50 [2] | pEC50 [1, 3] | pEC50 ([1]; read-out: MOLT4 (EC50); assay of Example E, inhibition of MOLT4)
1 | CC(C)C[C@H](NC(=O)[C@@H](NC(=O)c1cccc(-c2cccnc2)c1)[C@@H](C)O)B(O)O [E.3.9, Boronic acid, [(1R)-1-[[(2S,3R)-3-hydroxy-2-[(3-pyridin-3-yl-benzoyl)amino]-1-oxobutyl]amino]-3-methylbutyl], hydrochloride salt] | > 8.00 | – | > 6.70
2 | CC(C)C[C@H](NC(=O)[C@@H](NC(=O)c1ccc(-c2cccnc2)cc1)[C@@H](C)O)B(O)O [E.4, Boronic Acid, [(1R)-1-[[(2S,3R)-3-hydroxy-2-[[4-(3-pyridyl)benzoyl]amino]-1-oxobutyl]amino]-3-methylbutyl]] | > 8.00 | > 6.70 | –
3 | CC(C)C[C@H](NC(=O)[C@@H](NC(=O)c1cnccn1)[C@@H](C)O)B(O)O [E.4.1, Boronic acid, [(1R)-1-[[(2S,3R)-3-hydroxy-2-[(2-pyrazinecarbonyl)amino]-1-oxobutyl]amino]-3-methylbutyl]] | > 7.00 | 5.70 to 6.70 | –
4 | CCCCc1ccc(C(=O)N[C@H](C(=O)N[C@@H](CC(C)C)B(O)O)[C@@H](C)O)nc1 [E.4.2, Boronic acid, [(1R)-1-[[(2S,3R)-3-hydroxy-2-[(5-butyl-pyridine-2-carbonyl)amino]-1-oxobutyl]amino]-3-methylbutyl]] | > 7.00 | > 6.70 | –
5 | CCCCCCCCCC(=O)N[C@@H](CNC(C)=O)C(=O)N[C@@H](CC(C)C)B(O)O [E.5.1, Boronic acid, [(1R)-1-[[(2S)-3-(acetylamino)-2-[(decanoylamino)]-1-oxopropyl]amino]-3-methylbutyl]] | > 8.00 | > 6.70 | –
6 | CCCCc1ccc(C(=O)N[C@@H](CNC(=O)NCCC)C(=O)N[C@@H](CC(C)C)B(O)O)cc1 [E.5.2, Boronic acid, [(1R)-1-[[(2S)-3-(propylureido)-2-[(4-butyl)-benzoylamino]-1-oxopropyl]amino]-3-methylbutyl]] | > 8.00 | > 6.70 | –
7 | CCCCc1ccc(C(=O)N[C@@H](CNC(=O)c2ccc(C)cc2)C(=O)N[C@@H](CC(C)C)B(O)O)cc1 [E.5.5] | > 8.00 | > 6.70 | –
8 | CCCCCCCCCC(=O)N[C@@H](CNC(=O)c1cccs1)C(=O)N[C@@H](CC(C)C)B(O)O [E.5.9] | > 8.00 | > 6.70 | –
9 | CCCCCC(=O)NC[C@H](NC(=O)c1ccc(CCCC)cc1)C(=O)N[C@@H](CC(C)C)B(O)O [E.5.10, Boronic acid, [(1R)-1-[[(2S)-3-(hexanoylamino)-2-[(4-butylbenzoylamino)]-1-oxopropyl]amino]-3-methylbutyl]] | > 8.00 | > 6.70 | –

Continued, in another order:

Row | pIC50 [2] | pEC50 [1, 3] | Structure (SMILES) | pEC50 ([1]; read-out: MOLT4 (EC50); assay of Example E, inhibition of MOLT4)
10 | > 8.00 | > 6.70 | CCCOc1cccc(C(=O)N[C@H](C(=O)N[C@@H](CC(C)C)B(O)O)[C@@H](C)O)c1 [E.3.10, Boronic acid, [(1R)-1-[[(2S,3R)-3-hydroxy-2-[(3-propoxy-benzoyl)amino]-1-oxobutyl]amino]-3-methylbutyl]] | –
11 | > 8.00 | > 6.70 | CCCCc1ccc(C(=O)N[C@@H](CNC(=O)c2cnccn2)C(=O)N[C@@H](CC(C)C)B(O)O)cc1 [E.5, Boronic Acid, [(1R)-1-[[(2S)-3-(2-pyrazincarbonylamino)-2-[(4-butylbenzoylamino)]-1-oxopropyl]amino]-3-methylbutyl]] | –
12 | > 8.00 | > 6.70 | CCCCc1ccc(C(=O)N[C@@H](CNC(=O)c2cccs2)C(=O)N[C@@H](CC(C)C)B(O)O)cc1 [E.5.7, Boronic acid, [(1R)-1-[[(2S)-3-[(thien-2-ylcarbonyl)amino]-2-[(4-butylbenzoylamino)]-1-oxopropyl]amino]-3-methylbutyl]] | –
13 | > 8.00 | > 6.70 | CCCCCCCCCC(=O)N[C@@H](CNS(=O)(=O)c1ccc(F)cc1)C(=O)N[C@@H](CC(C)C)B(O)O [E.5.12, Boronic acid, [(1R)-1-[[(2S)-3-[4-fluoro-benzenesulfonamide]-2-[(decanoyl)amino]-1-oxopropyl]amino]-3-methylbutyl]] | –
